Measurements from patent US10882869B2, “Condensed heterocyclic compounds and pesticides” (NISSAN CHEMICAL CORPORATION, priority 2015, dated 2021).

Legend:
Nilaparvata lugens [1] = assay: Insecticidal test on Nilaparvata lugens (rice sheaths soaked); type: in vivo; details: 144 h, 500 ppm solution, 3rd-instar larvae, 6 days after, 25° C.
Description: Rice sheaths were soaked in the solutions for about 10 seconds. After the soaking, the rice sheaths were dried in air and put in test tubes. In each tube, five 3rd-instar larvae of Nilaparvata lugens were released, and the tubes were capped with sponge and placed in an incubator at 25° C. 6 Days after, dead insects in the test tubes were counted, and the mortality (%) (the number of dead insects÷the number of released insects×100) was calculated. The test was carried out in duplicate.

Nilaparvata lugens [2] = assay: Systemic insecticidal test on Nilaparvata lugens (rice seedling root dip); type: in vivo; details: 20 ppm solution, rice seedling roots dipped 7 days, 3rd-instar larvae, 6 days after release, 25° C.
Description: 7 Days after, the rice seedlings were picked and put in test tubes, and in each tube, five 3rd-instar larvae of Nilaparvata lugens were released, and the tubes were capped with sponge and placed in an incubator at 25° C. 6 Days after the release of the insects, dead insects were counted, and the mortality (%) (the number of dead insects÷the number of released insects×100) was calculated. The test was carried out in duplicate.

Spodoptera litura = assay: Insecticidal test on Spodoptera litura (cabbage leaves soaked); type: in vivo; details: 144 h, 500 ppm solution, 3rd-instar larvae, 6 days after, 25° C.
Description: (§1) Leaves of cabbage were soaked in the solutions for about 10 seconds. After the soaking, the leaves were dried in air and placed in dishes. In each dish, five 3rd-instar larvae of Spodoptera litura were released, and the dishes were covered with lids and placed in an incubator at 25° C. 6 Days after, dead insects in the dishes were counted, and the mortality was calculated by using the same equation as in Test Example 1. The test was carried out in duplicate.

Myzus persicae = assay: Insecticidal test on Myzus persicae (cabbage leaf spray); type: in vivo; details: 144 h, 500 ppm solution sprayed (2.5 mg/cm^2), apterous adults on cabbage leaves, 6 days after, 25° C.
Description: Wet absorbent cotton was laid on glass dishes having an inner diameter of 3 cm, and covered with leaves of cabbage cut into circles of the same diameter, and 4 apterous adults of Myzus persicae were released. […] The solutions were sprayed from a rotary spray tower (2.5 mg/cm^2), and the dishes were covered with lids and placed in an incubator at 25° C. 6 Days after, dead insects were counted, and the mortality was calculated by using the same equation as in Test Example 1. The test was carried out in duplicate.

Plutella xylostella [3] = assay: Insecticidal test on Plutella xylostella (cabbage leaves soaked); type: in vivo; details: 144 h, 500 ppm solution, 3rd-instar larvae, 6 days after, 25° C.
Description: as §1, with “Plutella xylostella” for “Spodoptera litura”

Plutella xylostella [4] = assay: Soil irrigation test on Plutella xylostella; type: in vivo; details: 144 h, 500 ppm solution, 10 ml soil irrigation of cabbage seedlings, leaves picked 5 days after, 3rd-instar larvae, 6 days after
Description: The soil around the bases of cabbage seedlings (at the 2.5-leaf stage) planted in plastic cups was irrigated with 10 ml of the solutions. After the irrigation, the cabbage seedlings were placed in a greenhouse. 5 Days after the irrigation, leaves of cabbage were picked and placed in dishes. In each dish, five 3rd-instar larvae of Plutella xylostella were released, and the dishes were covered with lids and placed in an incubator at 25° C. 6 Days after, dead insects in the dishes were counted, and the mortality was calculated by using the same equation as in Test Example 1. The test was carried out in duplicate.

Rhipicephalus sanguineus = assay: Test on the effect on Rhipicephalus sanguineus (thin film in glass container); type: in vivo; details: 96 h, application dose 10 μg/cm^2, protonymphs, 4 days after release, 25° C.
Description: (§2) 350 μl of the solutions were applied to the bottoms and the side walls of glass containers with an inner wall surface area of 35 cm^2, and acetone was volatilized to prepare thin films of the compounds on the inner walls of the glass containers. Since the inner wall surface area of each glass container was 35 cm^2, the application dose was 10 μg/cm^2.
(§3) To each glass container, five protonymphs (male and female) of Rhipiceohalus sanguineus were released, and the containers were covered with lids and placed in an incubator at 25° C. 4 Days after the release of the ticks, dead ticks were counted, and the mortality was calculated by using the same equation as in Test Example 1.

Ctenocephalides felis = assay: Test on the effect on Ctenocephalides felis (thin film in glass container); type: in vivo; details: 96 h, application dose 10 μg/cm^2, adults, 4 days after release, 25° C.
Description: as §2
as §3, with “adults” for “protonymphs”, “Ctenocephalides felis” for “Rhipiceohalus sanguineus”, “fleas,” for “ticks,”, “fleas” for “ticks”

[5] = test system: Frankliniella occidentalis; assay: Insecticidal activity on Frankliniella occidentalis (kidney bean leaf spray); type: in vivo; details: 48 h, 500 ppm solution sprayed (2.5 mg/cm^2), larvae on kidney bean leaves, 2 days after
Description: In styrol cups having an inner diameter of 7 cm, wet filter paper was laid, kidney bean leaves cut into a 3 cm square were laid on the paper, and each leaf was inoculated with 20 larvae of Frankliniella occidentalis. […] 2.5 ml of the solutions were sprayed from a rotary spray tower into the styrol cups (2.5 mg/cm^2).
2 Days after, dead insects were counted, and insect damage on kidney bean leaves was examined. The mortality was calculated by using the same equation as in Test Example 1.
The insect damage degree was evaluated as follows. 1: 0 to 20% insect damage, 2: 20 to 50% insect damage, 3: 50 to 70% insect damage, and 4: 70% or higher insect damge. The test was carried out in duplicate.

Bemisia argentifolii = assay: Insecticidal test on Bemisia argentifolii (kidney bean leaf spray); type: in vivo; details: 120 h, 500 ppm solution sprayed (2.5 mg/cm^2), adults on kidney bean leaves, 5 days after, 25° C.
Description: In styrol cups having an inner diameter of 7 cm, wet filter paper was laid, and kidney bean leaves cut to 3 cm were laid on the paper. […] The leaves were dried in air, and adults of Bemisia argentifolii were released in the cups, and the cups were covered with lids and placed in an incubator at 25° C. 5 Days after, dead insects were counted, and the mortality was calculated by using the same equation as in Test Example 1. The test was carried out in duplicate.

| Compound | mortality at 500 ppm (Nilaparvata lugens [1]) [%] | mortality at 20 ppm (Nilaparvata lugens [2]) [%] | mortality at 500 ppm (Spodoptera litura) [%] | mortality at 500 ppm (Myzus persicae) [%] | mortality at 500 ppm (Plutella xylostella [3]) [%] | pest or weed control at 500 ppm (Plutella xylostella [4]) [%] | mortality at 10 µg/cm2 (Rhipicephalus sanguineus) [%] | mortality at 10 µg/cm2 (Ctenocephalides felis) [%] | melting point [°C] | mortality at 500 ppm [5] [%] | mortality at 500 ppm (Bemisia argentifolii) [%] |
| --- | --- | --- | --- | --- | --- | --- | --- | --- | --- | --- | --- |
| CCS(=O)(=O)c1c(-c2nc3cc(C(F)(F)F)cnc3n2C)nc2cc(C(F)(F)F)ccn12 [1-1-002a, 2-[3-(ethylsulfonyl)-7-(trifluoromethyl)imidazo[1,2-a]pyridin-2-yl]-3-methyl-6-(trifluoromethyl)-3H-imidazo[4,5-b]pyridine] | ≥ 90 | ≥ 90 | ≥ 90 | ≥ 90 | ≥ 90 | ≥ 90 | ≥ 50 | ≥ 50 |  |  |  |
| CCSc1c(-c2nc3cc(I)cnc3n2C)nc2cc(C(F)(F)F)ccn12 [1-1-026b, 2-[3-(ethylthio)-7-(trifluoromethyl)imidazo[1,2-a]pyridin-2-yl]-6-iodo-3-methyl-3H-imidazo[4,5-b]pyridine] |  |  |  |  |  |  |  |  | 230 to 233 |  |  |
| CCCCC(CC)COC(=O)CCSc1cnc2c(c1)nc(-c1nc3cc(C(F)(F)F)ccn3c1SCC)n2C (stereo not shown) [1-1-028b, 2-ethylhexyl 3-((2-(3-(ethylthio)-7-(trifluoromethyl)imidazo[1,2-a]pyridin-2-yl)-3-methyl-3H-imidazo[4,5-b]pyridin-6-yl)thio)propanoate] |  |  |  |  |  |  |  |  | 94 to 96 |  |  |
| CCSc1c(-c2nc3cc(C(F)(F)F)cnc3n2C)nc2cnc(C(F)(F)F)cn12 [1-1-029b, 2-[3-(ethylthio)-6-(trifluoromethyl)imidazo[1,2-a]pyrazin-2-yl]-3-methyl-6-(trifluoromethyl)-3H-imidazo[4,5-b]pyridine] |  |  |  |  |  |  |  |  | 220 to 222 |  |  |
| CCS(=O)(=O)c1c(-c2nc3cc(C(F)(F)F)cnc3n2C)nc2cc(C(F)(F)F)cnn12 [1-1-057a, 2-[3-(ethylsulfonyl)-7-(trifluoromethyl)imidazo[1,2-b]pyridazin-2-yl]-3-methyl-6-(trifluoromethyl)-3H-imidazo[4,5-b]pyridine] | ≥ 90 | ≥ 90 | ≥ 90 | ≥ 90 | ≥ 90 | ≥ 90 | ≥ 50 | ≥ 50 |  | ≥ 50 |  |
| CC[S+]([O-])c1c(-c2nc3cc(C(F)(F)F)cnc3n2C)nc2cc(C(F)(F)F)cnn12 (stereo not shown) [1-1-057c, 2-[3-(ethylsulfinyl)-7-(trifluoromethyl)imidazo[1,2-b]pyridazin-2-yl]-3-methyl-6-(trifluoromethyl)-3H-imidazo[4,5-b]pyridine] | ≥ 90 | ≥ 90 | ≥ 90 | ≥ 90 | ≥ 90 |  | ≥ 50 | ≥ 50 |  | ≥ 50 |  |
| CCS(=O)(=O)c1c(-c2cn3cnc(C(F)(F)F)cc3n2)nc2cc(C(F)(F)F)ccn12 [1-3-001a, 2-[3-(ethylsulfonyl)-7-(trifluoromethyl)imidazo[1,2-a]pyridin-2-yl]-7-(trifluoromethyl)imidazo[1,2-c]pyrimidine] | ≥ 90 | ≥ 90 | ≥ 90 | ≥ 90 | ≥ 90 | ≥ 90 |  | ≥ 50 |  |  | ≥ 90 |
| CCSc1c(-c2nc3nc(C(F)(F)F)ccc3n2C)nc2cc(C(F)(F)F)ccn12 [1-7-001b, 2-[3-(ethylthio)-7-(trifluoromethyl)imidazo[1,2-a]pyridin-2-yl]-1-methyl-5-(trifluoromethyl)-1H-imidazo[4,5-b]pyridine] |  |  |  |  |  |  |  |  | 164 to 166 |  |  |
| CCS(=O)(=O)c1c(-c2nc3cc(C(F)(F)F)ncc3n2C)nc2cc(C(F)(F)F)ccn12 [1-8-005a, 2-[3-(ethylsulfonyl)-7-(trifluoromethyl)imidazo[1,2-a]pyridin-2-yl]-3-methyl-6-(trifluoromethyl)-3H-imidazo[4,5-c]pyridine] | ≥ 90 | ≥ 90 | ≥ 90 | ≥ 90 | ≥ 90 | ≥ 90 | ≥ 50 | ≥ 50 |  |  |  |
| CCSc1c(-c2nc3cc(C(F)(F)F)cnc3s2)nc2cc(C(F)(F)F)ccn12 [1-13-001b, 2-[3-(ethylthio)-7-(trifluoromethyl)imidazo[1,2-a]pyridin-2-yl]-6-(trifluoromethyl)thiazolo[5,4-b]pyridine] |  |  |  |  |  |  |  |  | 150 to 160 |  |  |
| CCS(=O)(=O)c1c(-c2nc3cc(C(F)(F)F)c[n+]([O-])c3n2C)nc2cc(C(F)(F)F)ccn12 [1-14-001a, 2-[3-(ethylsulfonyl)-7-(trifluoromethyl)imidazo[1,2-a]pyridin-2-yl]-3-methyl-6-(trifluoromethyl)-3H-imidazo[4,5-b]pyridine 4-oxide] | ≥ 90 | ≥ 90 | ≥ 90 | ≥ 90 | ≥ 90 | ≥ 90 |  | ≥ 50 |  |  | ≥ 90 |
| CCS(=O)(=O)c1c(-c2nc3cc(C(F)(F)F)cnc3n2C)sc2ccc(C(F)(F)F)cc12 [3-1-002a, 2-[3-(ethylsulfonyl)-5-(trifluoromethyl)benzo[b]thiophen-2-yl]-3-methyl-6-(trifluoromethyl)-3H-imidazo[4,5-b]pyridine] | ≥ 90 |  | ≥ 90 | ≥ 90 | ≥ 90 |  | ≥ 50 | ≥ 50 |  | ≥ 50 | ≥ 90 |
| CCSc1c(-c2nc3cc(C(F)(F)F)cnc3n2C)sc2ccc(C(F)(F)F)cc12 [3-1-002b, 2-[3-(ethylthio)-5-(trifluoromethyl)benzo[b]thiophen-2-yl]-3-methyl-6-(trifluoromethyl)-3H-imidazo[4,5-b]pyridine] |  | ≥ 90 | ≥ 90 |  | ≥ 90 |  | ≥ 50 | ≥ 50 |  |  |  |
